Non-standard residues stand in square brackets, D forms with d. Residues, ends and D or L forms follow the SMILES beside them. dPhe(4-Cl) = N[C@H](Cc1ccc(Cl)cc1)C(=O)O; d2Nal = N[C@H](Cc1ccc2ccccc2c1)C(=O)O; dCit = NC(=O)NCCC[C@@H](N)C(=O)O; d3Pal = N[C@H](Cc1cccnc1)C(=O)O
Experiments:
hormone concentration = experiment: clinical trials, daily dose of 10 mg, suppression of hormone concentration; format: in vivo, human; settings: daily dose of 10 mg
Text: This high daily dose cannot be applied in slow-release forms which are intended to act over a long period of time, for example several months. The depot injected under the skin would be too voluminous and would no longer be acceptable. Therefore there is the object of providing a product for reliable and acceptable application.

[1] = system: DMBA-induced mammary cancers; experiment: DMBA-induced mammary cancers in rats; format: in vivo; settings: initial high dose and a further dose which is not active when administered on its own
LH, FSH and testosterone = experiment: trial in humans over three weeks, initial dose plus maintenance doses, suppression of LH, FSH and testosterone; format: in vivo
Procedure: This surprising observation in animals was also confirmed in humans. […] The trial was performed over three weeks.

CC(=O)N[C@H](Cc1ccc2ccccc2c1)C(=O)N[C@H](Cc1ccc(Cl)cc1)C(=O)N[C@H](Cc1cccnc1)C(=O)N[C@@H](CO)C(=O)N[C@@H](Cc1ccc(O)cc1)C(=O)N[C@H](CCCNC(N)=O)C(=O)N[C@@H](CC(C)C)C(=O)N[C@@H](CCCNC(=N)N)C(=O)N1CCC[C@H]1C(=O)N[C@H](C)C(N)=O [Cetrorelix] (Ac-[d2Nal][dPhe(4-Cl)][d3Pal]SY[dCit]LRP[dA]-NH2)
suppression of the hormone concentration (hormone concentration): complete suppression of the hormone concentration to castration level | treatment of DMBA-induced mammary cancers [1]: successful treatment | suppression of LH, FSH and testosterone under maintenance doses after initial dose (LH, FSH and testosterone; after 10 mg initial dose, maintenance 1 mg every 12 hours, 2 mg every 24 hours or 1 mg every 24 hours, three weeks): suppression of LH, FSH and testosterone was maintained | suppression of LH, FSH and testosterone after initial dose (LH, FSH and testosterone; injection of an initial dose of 10 mg): led to suppression of LH, FSH and testosterone | suppression of LH, FSH and testosterone with maintenance doses on their own (LH, FSH and testosterone; maintenance doses (1 mg every 12 hours, 2 mg every 24 hours, 1 mg every 24 hours) applied on their own, no initial dose): suppression of LH, FSH and testosterone is not achieved
